According to patent US10143668B2, “Hydroxy-substituted amino and ammonium derivatives and their medical use” (GRI BIO, INC., priority 2011, dated 2018):
Where “and” joins values, the source holds several entries; their conditions need not be identical. Equal values may be shown once. Marks after values point to notes of the source that are not given here.

Experiments:
RBL-2H3 cells = experiment: Inhibition of mast cell degranulation (β-hexosaminidase release); assay type: cell-based; details: Rattus norvegicus, RBL-2H3 cells sensitized with anti-DNP IgE, triggered with DNP-HSA
Text: Mast cells are key effector cells involved in allergic and inflammatory diseases, and the Rat Basophilic Leukemia clone 2H3 (RBL-2H3) cell line is a commonly used model of allergen dependent immune modulator release (degranulation) in mast cells. On their surface, they express the high affinity receptor for IgE (FcεRI) Upon binding of antigen-specific IgE to the receptor, cells become sensitized to the IgE specific antigen (allergen). When IgE-sensitized cells then encounter multivalent antigen, the antigen clusters IgE-FcεRI complexes and initiates a signal transduction cascade that leads to degranulation, that is, the release of inflammatory mediators, such as cytokines, eicosanoids, histamine and enzymes. The assay can be used as a screening method to identify immune-modulating compounds, in particular compounds useful in the medical management of allergic and inflammatory diseases and asthma. β-hexosaminidase was previously shown to be released with the same kinetics as histamine (Schwartz et al., J Immunology; 123:1445-1450 (1979)), thus offering a simple means to monitor degranulation. The RBL-2H3 cell line has been successfully used to identify compounds with anti-allergic activity (Choo et al. Planta Med., 69:518-522 (2003)).
Cell Culture: RBL-2H3 cells obtained from the German Collection of Microorganisms and Cell Cultures (ACC312) (Braunschweig, Germany) were maintained in 70% Minimum Essential Medium with Earle's Salts, 20% RPMI 1640 Medium, 10% FBS and 2 mM L-glutamine in 95% air/5% CO2 at 37° C. and routinely checked for mycoplasma contamination. Cells were passaged every 3-4 days; after washing cells once with 35 ml PBS cells were incubated 8 min with 5 ml 0.05% Trypsin-EDTA solution at 37° C. Cells were removed from the incubator, 15 ml culture medium was added and cells were resuspended by repeated pipetting.
Cell seeding: cells were harvested with Trypsin-EDTA as described and 50-100 μl cell suspension seeded into Costar CellBind 24 well cluster plates (no. 3337). Plates were kept for 30 min at RT under the sterile hood before being transferred to the incubator. Cells were used within one or two days after seeding.
For sensitization, cells for immediate use were sensitized 6-12 h after plating; cells to be used the following day were sensitized 26-38 h after plating. Culture plates were removed from the incubator and checked for cell growth and contamination. The medium was discarded and cells were sensitized with anti-DNP IgE (0.4 μg/ml) in 0.4 ml culture medium overnight. Following overnight sensitization, cells were washed with 0.8 ml pre-warmed TyB and 0.38 ml test compound or vehicle control (supplemented or not with 1% FBS) were added to duplicate wells. Samples were adjusted to contain 1% vehicle for test compounds dissolved in organic solvents. Cells were incubated for 1 h at 37° C. At the end of the incubation period, cells were routinely stimulated with 20 μl DNP-HSA (2 μg/ml; final concentration 0.1 μg/ml) diluted in TyB and cells were incubated for 15 min at 37° C. Alternatively, cells were stimulated with 20 μl 5 μM ionomycin (final concentration 0.25 μM) or 20 μl 5 μM thapsigargin (final concentration 0.25 μM), both in the absence or presence of 20 nM PMA (final concentration). […]
MUG substrate solution, 100 μl, were added to supernatant and lysate samples and plates were incubated 30 min at 37° C. […] Fluorescene was measured at 365 nm excitation and 440 nm emmission wavelengths. […]

[1] = test system: allergic contact dermatitis response in mice; experiment: Allergic contact dermatitis (TDI) model in mice, mouse ear swelling test; assay type: in vivo
Description: The anti-inflammatory and anti-allergic effects of compound 1a were assessed in a mouse model of allergic contact dermatitis, a response driven primarily by T helper type 2 (Th2) cells. […] In this model, an allergic dermatitis response is obtained by sensitizing mice to TDI and subsequently challenging them with antigen by topical administration onto the ears. A quantitative assessment of anti-inflammatory and anti-allergic effects of topically or orally administered test compounds is possible by measuring the resulting ear swelling.
Female BALB/c-mice were obtained from Charles River (Sulzfeld, Germany) at age 8 weeks. All animals were housed in groups of eight per cage at 22° C. with a 12 h light/dark-cycle. Water and a standard diet (Altromin, Lage/Lippe, Germany) were available ad libitum. All animals were acclimatized for one week before experimental procedures were commenced.
Experimental procedures for BALB/c mice housing, TDI sensitization and challenge, and measurement of ear thickness were performed as previously described (Baumer et al., J Pharm Pharmacol. 55:1107-1114 (2003)) with the following modifications. For active sensitization, 100 μL of 5% (w/v) TDI was administered to the shaved and stripped abdominal epidermis on day one, and for the next three consecutive days, 50 μL of 5% (w/v) TDI was applied. The allergic reaction was boosted 21 days later by application of 50 μL of 0.5% (w/v) TDI. For the examination of test compound effects, the left ears were used for the TDI challenge (20 μL of 0.5% in acetone) and ear thickness measured 3 h before and 24 h after challenge.
Administration time: to determine optimal time for administration treatment groups were treated orally by gavage with 100 mg/kg of compound 1a (suspended in 0.5% tylose, 10 mL/kg) 1, 4 or 16 h before topical TDI challenge. One group was treated with 100 mg/kg miltefosine orally, 16 h before challenge (based on available data for optimal administration time for miltefosine) and vehicle treated mice received tylose (10 mL/kg) orally, 4 h before challenge.
Comparison with dexamethasone: one group of mice was treated orally with compound 1a at 100 mg/kg suspended in 0.5% tylose, 4 h before topical TDI challenge. Vehicle treated mice received 0.5% tylose orally 4 h before challenge. As a positive control, dexamethasone was administered in saline solution at 1 mg/kg or 3 mg/kg, 2 h and 30 min before challenge and 1 h after challenge. The dose and dosing scheme for dexamethasone was based on previous experience showing a maximal effect in this model.
[…] The solution was applied, 2 h before topical TDI challenge by administration of 10 μl onto each of the inner and outer surfaces of the left ears. A vehicle group (n=5) was treated with propyleneglycol. As a positive control, diflorasone diacetate was administered at 0.01% (low dose) and 0.05% (high dose) in 20 μl acetone, 2 h before challenge. A basal control group was left untreated.
Mean and standard error of the mean (SEM) were calculated from individual ear edema values. Statistical evaluation was a one-way analysis of variance (ANOVA) (if the test for normal distribution was passed) or the Kruskal-Wallis one-way ANOVA on Ranks (if the normal distribution test failed). Both were followed by a post-hoc test (Dunnett's method or Dunn's test, respectively). A p<0.05 was considered to be significant.

**Q.** What does the source list for `CCCCCCCCCCCCCC[N+](C)(C)CC(=O)N(C)C[C@H](O)[C@@H](O)[C@H](O)[C@H](O)CO` [Compound 1a, N-(2-(Dimethyl(tetradecyl)ammonio)acetyl)-N-methyl-D-glucamine chloride]?
**A.** IC50 (RBL-2H3 cells): 3.8 µM; toxicity ([1]; 100 mg/kg oral): no toxicity; inhibition relative to the highest dose of dexamethasone ([1]; 100 mg/kg oral vs dexamethasone 3 mg/kg): 37%; Inhibition of mouse ear swelling ([1]; administration time study, 100 mg/kg oral, 1 h before TDI challenge): 43.5* %; Inhibition of mouse ear swelling ([1]; administration time study, 100 mg/kg oral, 4 h before TDI challenge): 63% and 62.9*** %; Inhibition of mouse ear swelling ([1]; administration time study, 100 mg/kg oral, 16 h before TDI challenge): 43.5^§ %; Inhibition of mouse ear swelling ([1]; comparison with dexamethasone, 100 mg/kg oral, 4 h before challenge): 32%; Inhibition of mouse ear swelling ([1]; topical, 2% solution in propyleneglycol, 2 h before challenge): 68% and 67.7*** %; Inhibition of mouse ear swelling ([1]; topical, 6% solution in propyleneglycol, 2 h before challenge): 83% and 82.2*** %
